The text below walks through data of ChEMBL document CHEMBL1201862, “PubChem BioAssay data set” (2004).

The structures appear in SMILES notation. Calls of active or inactive are those of the source. A value given as a limit tells only on which side of the number the result lay.

A short description of test [1]: HEK293T cytotoxicity, dose response, cytotoxicity control for miR-122 modulator project, cell-based, activator set, cherry-pick (AID 720690).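 Also: HEK293T human cells scored for general mammalian cytotoxicity.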 Type of test: functional.
Test [2] in a line: HEK293T cytotoxicity, dose response, cytotoxicity control for miR-122 modulator project, cell-based, inhibitor set, cherry-pick, set 2 (AID 720697). Type of test: functional.
Test [3] can be described thus: miR-122 activators in hepatoma reporter cells, dose response, cell-based, Huh7 psiCHECK-miR122, Renilla luciferase, cherry-picked (AID 651956).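 Also: huh7 hepatoma cells stably carrying a psiCHECK-2 miR-122 sensor plasmid; renilla luciferase signal reporting endogenous miR-122 activity after 48 h compound exposure.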 Type of test: functional.
A short description of test [4]: NIH:OVCAR-3 ovarian cancer cell cytotoxicity, dose response, PAX8 inhibitor project, plate reader, dry powder samples (AID 743044). In kind it is functional, cell-based.
Test [5] is described as follows: IGROV1 ovarian cancer cell cytotoxicity, dose response, PAX8 inhibitor project, plate reader, dry powder samples (AID 743043). The following applies: IGROV-1. Type of test: functional, cell-based.
The nature of test [6]: A2780 ovarian cancer cell cytotoxicity, dose response, cytotoxicity control, plate reader, dry powder samples (AID 743046). Type of test: functional, cell-based.
Test [7] can be described thus: P. falciparum Dd2 growth inhibitors, dose response, SYBR Green, cherry-picked samples (AID 1159567). Type of test: functional, cell-based.
The next test deals with Paired box protein Pax-8 (Homo sapiens, UniProt Q06710). Kind of test: inhibitors of PAX8-driven TPO luciferase reporter, dose response, RMG-I cells, cherry-pick (AID 687027).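 Also: luciferase reporter driven by Pax8 target thyroperoxidase promoter measured by SteadyGlo luminescence.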 Type of test: functional, cell-based. For orientation: In a reporter assay the amount or activity of a reporter protein is the signal.
Test [8] in a line: inhibitors of CMV-promoter luciferase reporter, dose response, counter-screen for Pax8 inhibitor project, cell-based, HEK293, luminescence, dry powder (AID 743020). Type of test: functional.
Test [9] can be described thus: cytotoxicity in OVCAR8 ovarian cancer cells, dose response, PAX8 project, cell-based, plate reader, dry powder samples (AID 743197). The following applies: OVCAR-8. Type of test: functional.
Test [10] in a line: P. falciparum 3D7-ScDHODH growth inhibitors, dose response, SYBR Green, dry powder samples (AID 1159570).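 Also: parasite growth measured after 72 hours of compound exposure.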 Type of test: functional, cell-based.
Test [11] can be described thus: HepG2 cell cytotoxicity, dose response, cytotoxicity control, plate reader, dry powder samples (AID 1159569).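 Also: inhibitor potency with signal falling toward the positive control level.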 In kind it is functional, cell-based.
The nature of test [12]: A549 cell cytotoxicity, dose response, cytotoxicity control, plate reader, cherry-pick, antagonist series (AID 743412). In kind it is functional, cell-based.
Test [13] in a line: LGR2 antagonists, dose response, cell-based, HEK293, CRE-luciferase reporter, cherry pick, set 2 (AID 743343).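 Also: transfected cells were stimulated with diluted bursicon conditioned medium after compound addition.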 In kind it is functional.
A short description of test [14]: IOSE-T80 ovarian epithelial cell cytotoxicity, dose response, cytotoxicity control for PAX8 inhibitor project, plate reader, dry powder samples (AID 743045). Type of test: functional, cell-based.
Test [15] is described as follows: P. falciparum Dd2 growth inhibitors, dose response, SYBR Green, dry powder samples (AID 1159566).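 Also: potency for growth inhibition with lower SYBR green DNA signal.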 Type of test: functional, cell-based.
Test [16] can be described thus: MC4R antagonists, dose response, counter-screen for LGR2 antagonist project, cell-based, plate reader, cherry pick (AID 743444).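 Also: transfected HEK 293 cells stimulated with alpha-MSH peptide; potency of inhibitors of the alpha-MSH evoked signal.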 Type of test: functional.
The nature of test [17]: P. falciparum ATP4 D1247Y mutant growth inhibitors, dose response, NITD609-resistant line, SYBR Green, dry powder (AID 1159571).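 Also: parasites synchronized at ring stage by sorbitol before testing.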 In kind it is functional, cell-based.
Test [18] can be described thus: HepG2 cell cytotoxicity, dose response, cytotoxicity control, plate reader, cherry-pick, antagonist series (AID 743416). Type of test: functional, cell-based.
The nature of test [19]: HEK293 cell cytotoxicity, dose response, cytotoxicity control, plate reader, cherry-picked samples (AID 743446). Type of test: functional, cell-based.
The nature of test [20]: HepG2 cell cytotoxicity, dose response, cytotoxicity control, luminescence plate reader, powder samples, set 2 (AID 651860). In kind it is functional, cell-based.
Test [21] concerns the target Endoplasmic reticulum aminopeptidase 1 (Homo sapiens, UniProt Q9NZ08). Kind of test: ERAP1 aminopeptidase inhibitors, dose response, biochemical, cherry-pick, set 2, plate reader (AID 743314).
The nature of test [22]: Late stage assay provider results from the probe development effort to identify selective inhibitors of heat shock protein 90 (HSP90): Absorbance-based cell proliferation assay in SKBR3 cells. As to conditions: SK-BR-3. In kind it is functional.
Test [23] in a line: Late stage assay provider results from the probe development effort to identify selective inhibitors of heat shock protein 90 (HSP90): Absorbance-based cell proliferation assay in MCF7 cells. In kind it is functional.
In test [24] the target is Potassium channel subfamily K member 3 (Homo sapiens, UniProt O14649). Kind of test: TASK1 (KCNK3) potassium channel inhibitors, SAR follow-up, CHO cells, FluxOR thallium flux (AID 652212). In kind it is functional.
A further test concerns INS1. As to the kind of experiment: beta cell apoptosis inhibitors, cytokine rescue, dose response, luminescence, retest (AID 449756).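 Also: cell death triggered by IL-1 beta plus TNF-alpha plus IFN-gamma mixture; protective hits raise ATP signal compared with cytokine alone wells.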 The following applies: Rattus norvegicus. Type of test: functional, cell-based.
The next test deals with Nonstructural protein 1 (Influenza A virus, UniProt Q194T2). Type of test: functional, Influenza A virus (A/California/07/2009(H1N1)).
The target of another test is fMet-Leu-Phe receptor (Homo sapiens, UniProt P21462). Kind of test: FPR ligands, dose response (AID 519). Type of test: functional.
Another test concerns the target Cytochrome P450 3A4 (Homo sapiens, UniProt P08684).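 Also: CYP3A4 tested as one member of a cytochrome P450 panel screen.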
Test [25] is described as follows: T. cruzi growth inhibition in host cells, dose response, cell-based, plate reader, dry powder, set 2 (AID 652275). Type of test: functional.

Paired box protein Pax-8, sequence (Q06710 whole entry): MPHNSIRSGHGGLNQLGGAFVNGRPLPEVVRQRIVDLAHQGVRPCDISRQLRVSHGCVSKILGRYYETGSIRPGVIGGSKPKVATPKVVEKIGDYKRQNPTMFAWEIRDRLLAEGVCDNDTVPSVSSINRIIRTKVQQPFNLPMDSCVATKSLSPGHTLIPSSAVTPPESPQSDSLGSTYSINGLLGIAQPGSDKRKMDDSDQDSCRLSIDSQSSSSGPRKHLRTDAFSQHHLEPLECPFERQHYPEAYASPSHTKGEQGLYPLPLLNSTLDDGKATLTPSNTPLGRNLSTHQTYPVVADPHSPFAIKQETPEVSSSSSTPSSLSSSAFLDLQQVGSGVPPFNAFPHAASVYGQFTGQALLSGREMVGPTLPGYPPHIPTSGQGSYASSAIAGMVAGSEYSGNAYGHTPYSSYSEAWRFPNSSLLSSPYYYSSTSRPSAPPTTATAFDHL
Potassium channel subfamily K member 3, sequence (O14649 whole entry): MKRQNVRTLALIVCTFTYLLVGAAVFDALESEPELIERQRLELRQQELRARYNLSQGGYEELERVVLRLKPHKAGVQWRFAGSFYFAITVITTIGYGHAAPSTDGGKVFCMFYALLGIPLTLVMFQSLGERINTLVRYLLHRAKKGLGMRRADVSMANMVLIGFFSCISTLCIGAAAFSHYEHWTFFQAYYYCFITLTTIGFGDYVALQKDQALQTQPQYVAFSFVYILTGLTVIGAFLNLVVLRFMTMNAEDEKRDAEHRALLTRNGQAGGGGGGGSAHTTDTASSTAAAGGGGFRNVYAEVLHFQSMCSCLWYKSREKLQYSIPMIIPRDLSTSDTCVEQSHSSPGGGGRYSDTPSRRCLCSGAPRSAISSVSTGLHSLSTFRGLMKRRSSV
fMet-Leu-Phe receptor, sequence (P21462 whole entry): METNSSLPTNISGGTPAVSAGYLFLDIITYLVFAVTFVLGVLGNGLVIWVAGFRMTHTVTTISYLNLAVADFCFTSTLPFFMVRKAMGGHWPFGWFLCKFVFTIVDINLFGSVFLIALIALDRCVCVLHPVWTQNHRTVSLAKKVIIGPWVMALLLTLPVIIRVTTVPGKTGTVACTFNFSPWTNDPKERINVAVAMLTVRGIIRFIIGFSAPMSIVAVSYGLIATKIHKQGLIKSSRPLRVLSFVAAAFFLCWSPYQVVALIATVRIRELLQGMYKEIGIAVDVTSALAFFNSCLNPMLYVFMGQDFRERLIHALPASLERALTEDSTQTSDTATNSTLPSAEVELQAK
Cytochrome P450 3A4, sequence (P08684 whole entry): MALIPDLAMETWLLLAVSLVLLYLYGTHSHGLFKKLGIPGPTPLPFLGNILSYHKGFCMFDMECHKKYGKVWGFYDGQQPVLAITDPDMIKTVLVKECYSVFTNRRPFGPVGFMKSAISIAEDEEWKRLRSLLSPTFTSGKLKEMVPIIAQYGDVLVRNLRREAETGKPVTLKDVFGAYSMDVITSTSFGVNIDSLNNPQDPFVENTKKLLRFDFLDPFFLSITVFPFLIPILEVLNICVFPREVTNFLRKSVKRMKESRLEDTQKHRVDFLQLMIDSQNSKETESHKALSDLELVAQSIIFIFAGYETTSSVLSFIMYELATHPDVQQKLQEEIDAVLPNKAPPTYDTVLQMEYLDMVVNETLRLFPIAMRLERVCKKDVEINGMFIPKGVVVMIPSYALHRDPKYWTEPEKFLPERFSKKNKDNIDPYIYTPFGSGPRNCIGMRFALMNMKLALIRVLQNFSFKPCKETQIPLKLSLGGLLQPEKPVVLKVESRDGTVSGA
Nonstructural protein 1, sequence (Q194T2 whole entry): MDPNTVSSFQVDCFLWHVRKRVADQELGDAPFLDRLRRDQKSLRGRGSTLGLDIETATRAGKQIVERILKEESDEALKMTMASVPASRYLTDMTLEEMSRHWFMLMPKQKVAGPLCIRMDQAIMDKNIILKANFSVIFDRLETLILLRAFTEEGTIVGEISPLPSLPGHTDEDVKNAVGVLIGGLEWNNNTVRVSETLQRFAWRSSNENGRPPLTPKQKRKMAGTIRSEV
Endoplasmic reticulum aminopeptidase 1, sequence (Q9NZ08 whole entry): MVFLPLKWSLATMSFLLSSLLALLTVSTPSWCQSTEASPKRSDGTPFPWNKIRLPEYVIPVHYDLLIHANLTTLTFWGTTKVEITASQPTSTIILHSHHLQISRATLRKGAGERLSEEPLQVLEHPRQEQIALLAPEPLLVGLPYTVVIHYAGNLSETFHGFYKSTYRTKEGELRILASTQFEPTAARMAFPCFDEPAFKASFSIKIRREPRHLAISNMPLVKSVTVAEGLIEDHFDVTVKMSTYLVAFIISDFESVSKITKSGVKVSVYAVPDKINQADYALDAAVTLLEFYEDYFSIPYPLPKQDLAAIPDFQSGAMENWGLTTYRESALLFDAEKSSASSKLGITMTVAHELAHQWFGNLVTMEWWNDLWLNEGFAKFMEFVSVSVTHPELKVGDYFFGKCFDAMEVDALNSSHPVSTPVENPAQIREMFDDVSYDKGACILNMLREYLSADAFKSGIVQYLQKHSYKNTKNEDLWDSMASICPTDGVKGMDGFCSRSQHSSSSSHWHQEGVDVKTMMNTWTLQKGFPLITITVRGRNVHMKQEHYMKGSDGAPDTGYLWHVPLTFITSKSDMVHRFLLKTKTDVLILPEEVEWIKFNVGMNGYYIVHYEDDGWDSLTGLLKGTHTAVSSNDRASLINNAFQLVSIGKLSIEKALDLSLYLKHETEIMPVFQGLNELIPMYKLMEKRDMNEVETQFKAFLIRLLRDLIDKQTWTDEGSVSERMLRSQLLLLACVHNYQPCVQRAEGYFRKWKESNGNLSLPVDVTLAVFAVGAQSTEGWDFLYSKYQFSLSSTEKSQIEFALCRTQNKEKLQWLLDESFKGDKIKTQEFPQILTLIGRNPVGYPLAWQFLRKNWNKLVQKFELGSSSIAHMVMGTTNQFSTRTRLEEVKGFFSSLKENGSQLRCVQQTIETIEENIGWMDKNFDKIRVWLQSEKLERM

As to `C[C@@H]1CN([C@@H](C)CO)S(=O)(=O)c2ccc(C#Cc3ccccc3F)cc2O[C@@H]1CN(C)C(=O)Cc1ccncc1`, the results for the AC50 in [1], in [2] and in test [3] were 45 µM (active), 5.41 µM (active) and 6.5 µM (active), respectively.

As to `CN1c2ccc(-c3cccc(C#N)c3)cc2[C@H]2[C@H](CCN2S(=O)(=O)c2ccccc2F)[C@H]1CO`, the AC50 in [4] is 16.6 µM (active); in test [5], 33.3 µM (active); in test [6], 38.1 µM (active); in [7], 3.57 µM (active); at Paired box protein Pax-8, 4.87 µM (active); in test [8], 28.2 µM (active). Moreover, the AC50 in test [9] is 23.4 µM (active).

In the case of `N#Cc1ccc(-c2ccc([C@@H]3[C@@H]4CN(C(=O)C5CC5)C[C@H]3N4)cc2)cc1`, the AC50 in test [10] is 0.328 µM (active); in [11], 1.41 µM (active); in test [4], 7.05 µM (active); in test [5] it was 4.73 µM (active); in test [6], 7.18 µM (active); in test [12], 0.821 µM (active). The AC50 in test [7] was < 0.3 µM (active); in test [13], 1.22 µM (active); in test [14], 40.5 µM (active); at Paired box protein Pax-8, 1.16 µM (active); in [15], 0.376 µM (active); in test [16], 0.684 µM (active). The AC50 in test [17] is 0.449 µM (active); in [18] it was 1.97 µM (active); in [9], 19.9 µM (active); in [19] it was 1.7 µM (active).

Turning to `O=C(O)C1CCCCC1C(=O)N1CCc2ccccc2C1CN1C(=O)Cc2ccccc2C1=O` (stereo unspecified), in test [20], the AC50 is > 52 µM (inactive).

As to `C[C@H](CO)N1C[C@H](C)[C@H](CN(C)C(=O)Nc2ccccc2)Oc2ncccc2C1=O`, the AC50 in test [21] is 12.3 µM (active).

Take `CCCCOc1cccc(NC(=O)c2coc(=O)c(Br)c2)c1`: the values for the IC50 in test [22] and in [23] were 32.9 µM (inactive) and 22.8 µM (inactive), respectively.

With `COc1ccc(C(=O)Nc2cccc(NC(=O)c3ccccc3)c2)cc1`, the IC50 in test [24] was 4.46 µM (active).

Turning to `Nc1ccc(Nc2ccccc2)cc1`, the AC50 in the test on INS1 was 7.64 µM (active); on Cytochrome P450 3A4, 20 µM (inconclusive). For the same compound, the IC50 at Nonstructural protein 1 was 45.3 µM (active). For the same compound, on fMet-Leu-Phe receptor, the Ki was > 66.7 µM (inactive).

In the case of `O=C(Cn1ccnc1[N+](=O)[O-])NCc1ccccc1` [BENZNIDAZOLE], in [25], the AC50 was 0.153 µM (active).

As a reminder, the AC50 is the concentration at which the activity in the assay is half-maximal. What is called IC50 is the concentration that gives 50% inhibition. By Ki is commonly meant the equilibrium dissociation constant of an inhibitor or competing ligand from its target.
